Measurements as given in the NIST ThermoML archive (doi:10.1016/j.jct.2011.04.006).
Values joined by “and” are separate entries in the source; they are usually repeats but may differ in a detail not shown here. Identical values can stand only once. Numbers after ± are expanded uncertainties.

Tests used:
[1] = 298.15 K; 101.33 kPa; Liquid; Vibrating tube method
[2] = excess molar enthalpy (molar enthalpy of mixing); xn = mol fraction of the nth substance listed; conditions: 298.15 K, 101 kPa, Liquid, Flow calorimetry

With CCC(C)(C)C [2,2-dimethylbutane] as the compound, how does the mass density [1] read?
The mass density was 644.588 ± 0.26 kg/m3.

For CCC(C)(C)C [2,2-dimethylbutane] + CCCCOCCCC, which excess molar enthalpy ([2]; x2 = 0.05) is on record?
Its excess molar enthalpy is 0.0065 ± 0.000263 kcal/mol.

What about the excess molar enthalpy ([2]; x2 = 0.1) of the same compound?
Its excess molar enthalpy is 0.0112 ± 0.000287 kcal/mol.

And the excess molar enthalpy ([2]; x2 = 0.1499)?
Its excess molar enthalpy is 0.015 ± 0.000311 kcal/mol.

What about the excess molar enthalpy ([2]; x2 = 0.2001) of the same compound?
The excess molar enthalpy was 0.018 ± 0.000359 kcal/mol.

And the excess molar enthalpy ([2]; x2 = 0.2502)?
Its excess molar enthalpy is 0.0205 ± 0.000382 kcal/mol.

And the excess molar enthalpy ([2]; x2 = 0.2996)?
The excess molar enthalpy was 0.0224 ± 0.000406 kcal/mol.

And the excess molar enthalpy ([2]; x2 = 0.3501)?
Its excess molar enthalpy is 0.0237 ± 0.000406 kcal/mol.

What about the excess molar enthalpy ([2]; x2 = 0.3998) of the same compound?
The excess molar enthalpy was 0.0246 ± 0.00043 kcal/mol.

What about the excess molar enthalpy ([2]; x2 = 0.4497) of the same compound?
The excess molar enthalpy was 0.0249 ± 0.00043 kcal/mol.

What about the excess molar enthalpy ([2]; x2 = 0.5003) of the same compound?
Its excess molar enthalpy is 0.0246 ± 0.00043 kcal/mol.

What about the excess molar enthalpy ([2]; x2 = 0.5004) of the same compound?
The excess molar enthalpy was 0.0245 ± 0.00043 kcal/mol.

And the excess molar enthalpy ([2]; x2 = 0.5499)?
The excess molar enthalpy was 0.0239 ± 0.000406 kcal/mol.

What about the excess molar enthalpy ([2]; x2 = 0.6002) of the same compound?
Its excess molar enthalpy is 0.0228 ± 0.000406 kcal/mol.

And the excess molar enthalpy ([2]; x2 = 0.6498)?
The excess molar enthalpy was 0.0213 ± 0.000382 kcal/mol.

And the excess molar enthalpy ([2]; x2 = 0.6999)?
The excess molar enthalpy was 0.0197 ± 0.000359 kcal/mol.

And the excess molar enthalpy ([2]; x2 = 0.7501)?
Its excess molar enthalpy is 0.0173 ± 0.000335 kcal/mol.

What about the excess molar enthalpy ([2]; x2 = 0.8) of the same compound?
The excess molar enthalpy was 0.0149 ± 0.000311 kcal/mol.

What about the excess molar enthalpy ([2]; x2 = 0.85) of the same compound?
The excess molar enthalpy was 0.0119 ± 0.000287 kcal/mol.

And the excess molar enthalpy ([2]; x2 = 0.9)?
The excess molar enthalpy was 0.0088 ± 0.000263 kcal/mol.

What about the excess molar enthalpy ([2]; x2 = 0.95) of the same compound?
Its excess molar enthalpy is 0.00528 ± 0.000239 kcal/mol.

With CCC(C)(C)C [2,2-dimethylbutane] + CCCOCCC as the compound, how does the excess molar enthalpy ([2]; x2 = 0.05) read?
Its excess molar enthalpy is 0.00906 ± 0.000287 kcal/mol.

What about the excess molar enthalpy ([2]; x2 = 0.1) of the same compound?
The excess molar enthalpy was 0.0163 ± 0.000359 kcal/mol.

What about the excess molar enthalpy ([2]; x2 = 0.15) of the same compound?
Its excess molar enthalpy is 0.0214 ± 0.000406 kcal/mol.

What about the excess molar enthalpy ([2]; x2 = 0.2) of the same compound?
The excess molar enthalpy was 0.0261 ± 0.000454 kcal/mol.

What about the excess molar enthalpy ([2]; x2 = 0.2499) of the same compound?
Its excess molar enthalpy is 0.0298 ± 0.000478 kcal/mol.

What about the excess molar enthalpy ([2]; x2 = 0.2998) of the same compound?
Its excess molar enthalpy is 0.0328 ± 0.000526 kcal/mol.

And the excess molar enthalpy ([2]; x2 = 0.3499)?
Its excess molar enthalpy is 0.0349 ± 0.00055 kcal/mol.

And the excess molar enthalpy ([2]; x2 = 0.3998)?
Its excess molar enthalpy is 0.036 ± 0.00055 kcal/mol.

And the excess molar enthalpy ([2]; x2 = 0.4501)?
Its excess molar enthalpy is 0.037 ± 0.000574 kcal/mol.

And the excess molar enthalpy ([2]; x2 = 0.4995)?
Its excess molar enthalpy is 0.037 ± 0.000574 kcal/mol.

What about the excess molar enthalpy ([2]; x2 = 0.5497) of the same compound?
The excess molar enthalpy was 0.0361 ± 0.00055 kcal/mol.

And the excess molar enthalpy ([2]; x2 = 0.6001)?
Its excess molar enthalpy is 0.0347 ± 0.00055 kcal/mol.

What about the excess molar enthalpy ([2]; x2 = 0.65) of the same compound?
Its excess molar enthalpy is 0.0325 ± 0.000526 kcal/mol.

What about the excess molar enthalpy ([2]; x2 = 0.7001) of the same compound?
Its excess molar enthalpy is 0.0298 ± 0.000478 kcal/mol.

What about the excess molar enthalpy ([2]; x2 = 0.7503) of the same compound?
The excess molar enthalpy was 0.0265 ± 0.000454 kcal/mol.

And the excess molar enthalpy ([2]; x2 = 0.8001)?
The excess molar enthalpy was 0.0226 ± 0.000406 kcal/mol.

And the excess molar enthalpy ([2]; x2 = 0.85)?
Its excess molar enthalpy is 0.0179 ± 0.000359 kcal/mol.

And the excess molar enthalpy ([2]; x2 = 0.9)?
Its excess molar enthalpy is 0.0127 ± 0.000311 kcal/mol.

And the excess molar enthalpy ([2]; x2 = 0.95)?
The excess molar enthalpy was 0.00676 ± 0.000263 kcal/mol.

With CC(C)C(C)C [2,3-dimethylbutane] as the compound, how does the mass density [1] read?
Its mass density is 657.023 ± 0.26 kg/m3.

Which excess molar enthalpy ([2]; x2 = 0.05) does the source give for CC(C)C(C)C [2,3-dimethylbutane] + CCCCOCCCC here?
Its excess molar enthalpy is 0.00607 ± 0.000239 kcal/mol.

What about the excess molar enthalpy ([2]; x2 = 0.1) of the same compound?
The excess molar enthalpy was 0.0104 ± 0.000287 kcal/mol.

And the excess molar enthalpy ([2]; x2 = 0.1501)?
The excess molar enthalpy was 0.0141 ± 0.000311 kcal/mol.

What about the excess molar enthalpy ([2]; x2 = 0.2) of the same compound?
Its excess molar enthalpy is 0.0172 ± 0.000335 kcal/mol.

And the excess molar enthalpy ([2]; x2 = 0.2502)?
Its excess molar enthalpy is 0.0196 ± 0.000359 kcal/mol.

And the excess molar enthalpy ([2]; x2 = 0.3)?
Its excess molar enthalpy is 0.0215 ± 0.000382 kcal/mol.

What about the excess molar enthalpy ([2]; x2 = 0.3499) of the same compound?
Its excess molar enthalpy is 0.0228 ± 0.000406 kcal/mol.

What about the excess molar enthalpy ([2]; x2 = 0.3998) of the same compound?
Its excess molar enthalpy is 0.0238 ± 0.000406 kcal/mol.

And the excess molar enthalpy ([2]; x2 = 0.4501)?
The excess molar enthalpy was 0.0243 ± 0.00043 kcal/mol.

And the excess molar enthalpy ([2]; x2 = 0.5)?
The excess molar enthalpy was 0.0243 ± 0.00043 kcal/mol.

What about the excess molar enthalpy ([2]; x2 = 0.5002) of the same compound?
Its excess molar enthalpy is 0.0242 ± 0.000406 kcal/mol.

What about the excess molar enthalpy ([2]; x2 = 0.5493) of the same compound?
The excess molar enthalpy was 0.0239 ± 0.000406 kcal/mol.

And the excess molar enthalpy ([2]; x2 = 0.5999)?
The excess molar enthalpy was 0.0229 ± 0.000406 kcal/mol.

And the excess molar enthalpy ([2]; x2 = 0.6501)?
Its excess molar enthalpy is 0.0217 ± 0.000382 kcal/mol.

And the excess molar enthalpy ([2]; x2 = 0.7)?
The excess molar enthalpy was 0.02 ± 0.000382 kcal/mol.

What about the excess molar enthalpy ([2]; x2 = 0.75) of the same compound?
The excess molar enthalpy was 0.0181 ± 0.000359 kcal/mol.

What about the excess molar enthalpy ([2]; x2 = 0.8001) of the same compound?
Its excess molar enthalpy is 0.0159 ± 0.000335 kcal/mol.

What about the excess molar enthalpy ([2]; x2 = 0.85) of the same compound?
The excess molar enthalpy was 0.0133 ± 0.000311 kcal/mol.

What about the excess molar enthalpy ([2]; x2 = 0.9001) of the same compound?
The excess molar enthalpy was 0.0101 ± 0.000263 kcal/mol.

And the excess molar enthalpy ([2]; x2 = 0.95)?
Its excess molar enthalpy is 0.00672 ± 0.000239 kcal/mol.

For CC(C)C(C)C [2,3-dimethylbutane] + CCCOCCC, which excess molar enthalpy ([2]; x2 = 0.05) is on record?
Its excess molar enthalpy is 0.00846 ± 0.000287 kcal/mol.

What about the excess molar enthalpy ([2]; x2 = 0.1) of the same compound?
The excess molar enthalpy was 0.0152 ± 0.000335 kcal/mol.

What about the excess molar enthalpy ([2]; x2 = 0.15) of the same compound?
The excess molar enthalpy was 0.0206 ± 0.000382 kcal/mol.

What about the excess molar enthalpy ([2]; x2 = 0.2001) of the same compound?
The excess molar enthalpy was 0.0252 ± 0.00043 kcal/mol.

What about the excess molar enthalpy ([2]; x2 = 0.25) of the same compound?
The excess molar enthalpy was 0.0288 ± 0.000478 kcal/mol.

And the excess molar enthalpy ([2]; x2 = 0.3001)?
Its excess molar enthalpy is 0.0321 ± 0.000502 kcal/mol.

What about the excess molar enthalpy ([2]; x2 = 0.3499) of the same compound?
The excess molar enthalpy was 0.0346 ± 0.00055 kcal/mol.

What about the excess molar enthalpy ([2]; x2 = 0.4) of the same compound?
Its excess molar enthalpy is 0.0364 ± 0.000574 kcal/mol.

And the excess molar enthalpy ([2]; x2 = 0.4498)?
The excess molar enthalpy was 0.0374 ± 0.000574 kcal/mol.

And the excess molar enthalpy ([2]; x2 = 0.4998)?
The excess molar enthalpy was 0.0377 kcal/mol and 0.0376 kcal/mol.

What about the excess molar enthalpy ([2]; x2 = 0.55) of the same compound?
The excess molar enthalpy was 0.0372 ± 0.000574 kcal/mol.

And the excess molar enthalpy ([2]; x2 = 0.5999)?
The excess molar enthalpy was 0.0359 ± 0.00055 kcal/mol.

And the excess molar enthalpy ([2]; x2 = 0.6501)?
Its excess molar enthalpy is 0.034 ± 0.000526 kcal/mol.

And the excess molar enthalpy ([2]; x2 = 0.7)?
The excess molar enthalpy was 0.0314 ± 0.000502 kcal/mol.

And the excess molar enthalpy ([2]; x2 = 0.7502)?
Its excess molar enthalpy is 0.028 ± 0.000478 kcal/mol.

What about the excess molar enthalpy ([2]; x2 = 0.8) of the same compound?
The excess molar enthalpy was 0.0242 ± 0.00043 kcal/mol.

And the excess molar enthalpy ([2]; x2 = 0.85)?
Its excess molar enthalpy is 0.0193 ± 0.000382 kcal/mol.

And the excess molar enthalpy ([2]; x2 = 0.9)?
Its excess molar enthalpy is 0.0138 ± 0.000335 kcal/mol.

What about the excess molar enthalpy ([2]; x2 = 0.95) of the same compound?
The excess molar enthalpy was 0.0075 ± 0.000287 kcal/mol.

With CCCOCCC [dipropyl ether] as the compound, how does the mass density [1] read?
Its mass density is 741.977 ± 0.24 kg/m3.
